Laboratory results reported in patent US9308182B2 (TEVA PHARMACEUTICAL INDUSTRIES, LTD., priority 2012, dated 2016).
Where two headings read alike, the source gives them in different places.

Assays:
[1] = molecular target: MAO-A (Rattus norvegicus, UniProt P21396); assay: in vivo; conditions: for MAO-A activity, brain / MAO-A activity, intestine / MAO-A activity, liver: two weeks; for MAO-A inhibition in the intestine: three lowest doses 0.02-0.1 mg/kg/day (salt); for inhibition at 0.02 mg/kg/day / inhibition at 0.05 mg/kg/day / inhibition at 0.1 mg/kg/day / inhibition at 0.2 mg/kg/day / inhibition at 0.4 mg/kg/day / inhibition at 0.8 mg/kg/day: rat
Description: ALZET® osmotic minipumps are described in Perkins L, Peer C, and Murphy-Hackley P. “Chapter 21: The use of mini-osmotic pumps in continuous infusion studies” in Handbook of Pre-Clinical Continuous Intravenous Infusion, (Smith & Healing, eds., Taylor and Francis, 2000), the contents of which are incorporated herein by reference.
The osmotic minipumps were inserted subcutaneously with a single surgical procedure: after clipping the fur from the dorsal area and cleaning the skin with antiseptic skin preparation, about 1 cm long incision was made on the dorsum of the animal, midway between both scappulae. The pump was placed along the axis of the body to one side of the backbone. The incision was positioned about 1-2 cm caudal to the estimated caudal end of the minipump when it is in place.
After two weeks of treatment the animals were sacrificed. From each rat, brain (half) and a part of liver were dissected and frozen. The intestine was excised about ½ cm below the stomach about 1-2 cm long, washed with sucrose 0.32 Molar and frozen at −70° C.
Tissue homogenates were pre incubated (37° C.) in the presence of clorgyline or deprenyl to inhibit the activity of MAO-A or MAO-B respectively. For MAO-B determination, samples were incubated for 20 minutes with C^14 PEA 10 μM and for MAO-A determination samples were incubated 30 minutes with C^14 −5HT 100 μM as substrate Termination of the reaction was done by acidification. The labeled metabolites were extracted into toluene:ethyl acetate, and counted in a β counter.

[2] = AZILECT Product Label, May 2006; cited from earlier work
[3] = po, read-out: Percent of MAO-A inhibition, brain
[4] = po, read-out: Percent of MAO-A inhibition, intestine
[5] = po, read-out: Percent of MAO-A inhibition, liver
[6] = sc, read-out: Percent of MAO-A inhibition, brain
[7] = sc, read-out: Percent of MAO-A inhibition, intestine
[8] = sc, read-out: Percent of MAO-A inhibition, liver

Sequence of MAO-A (P21396 whole entry, the tested form may be a part): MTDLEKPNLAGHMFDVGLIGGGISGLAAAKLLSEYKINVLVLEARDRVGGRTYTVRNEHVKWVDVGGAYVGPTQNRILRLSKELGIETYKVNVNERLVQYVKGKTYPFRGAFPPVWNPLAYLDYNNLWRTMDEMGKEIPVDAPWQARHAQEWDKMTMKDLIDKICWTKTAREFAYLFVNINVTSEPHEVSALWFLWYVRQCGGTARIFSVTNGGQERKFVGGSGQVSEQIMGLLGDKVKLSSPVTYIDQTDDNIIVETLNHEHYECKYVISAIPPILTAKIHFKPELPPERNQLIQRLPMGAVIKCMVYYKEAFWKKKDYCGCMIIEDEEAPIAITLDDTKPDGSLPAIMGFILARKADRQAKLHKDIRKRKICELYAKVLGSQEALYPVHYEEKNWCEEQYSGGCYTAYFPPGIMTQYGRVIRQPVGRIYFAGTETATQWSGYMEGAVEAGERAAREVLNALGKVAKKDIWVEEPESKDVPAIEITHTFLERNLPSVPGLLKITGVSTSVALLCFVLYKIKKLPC

- MAO-A activity, brain ([1]; oral, 0.8 mg/kg/day (salt)): 803 dpm
- MAO-A activity, brain ([1]; sc ALZET pumps, 0.02 mg/kg/day (salt)): 3479 dpm
- MAO-A activity, brain ([1]; sc ALZET pumps, 0.05 mg/kg/day (salt)): 2974 dpm
- MAO-A activity, brain ([1]; sc ALZET pumps, 0.1 mg/kg/day (salt)): 2595 dpm
- MAO-A activity, brain ([1]; sc ALZET pumps, 0.2 mg/kg/day (salt)): 1613 dpm
- MAO-A activity, brain ([1]; sc ALZET pumps, 0.4 mg/kg/day (salt)): 917 dpm
- MAO-A activity, brain ([1]; sc ALZET pumps, 0.8 mg/kg/day (salt)): 466 dpm
- MAO-A inhibition in the intestine, subcutaneous pumps compared with oral administration ([1]; intestine, 14 days, differences statistically significant): lower
- MAO-A activity, intestine ([1]; intestine, oral, 0.02 mg/kg/day (salt)): 2712 dpm
- MAO-A activity, intestine ([1]; intestine, oral, 0.05 mg/kg/day (salt)): 2607 dpm
- MAO-A activity, intestine ([1]; intestine, oral, 0.1 mg/kg/day (salt)): 2308 dpm
- MAO-A activity, intestine ([1]; intestine, oral, 0.2 mg/kg/day (salt)): 1891 dpm
- MAO-A activity, intestine ([1]; intestine, oral, 0.4 mg/kg/day (salt)): 1194 dpm
- MAO-A activity, intestine ([1]; intestine, oral, 0.8 mg/kg/day (salt)): 785 dpm
- MAO-A activity, intestine ([1]; intestine, sc ALZET pumps, 0.02 mg/kg/day (salt)): 3199 dpm
- MAO-A activity, intestine ([1]; intestine, sc ALZET pumps, 0.05 mg/kg/day (salt)): 2831 dpm
- MAO-A activity, intestine ([1]; intestine, sc ALZET pumps, 0.1 mg/kg/day (salt)): 3029 dpm
- MAO-A activity, intestine ([1]; intestine, sc ALZET pumps, 0.2 mg/kg/day (salt)): 2604 dpm
- MAO-A activity, intestine ([1]; intestine, sc ALZET pumps, 0.4 mg/kg/day (salt)): 1937 dpm
- MAO-A activity, intestine ([1]; intestine, sc ALZET pumps, 0.8 mg/kg/day (salt)): 1708 dpm
- MAOA inhibitory values in the intestine ([1]; intestine, sc ALZET pumps, dose from 0.2 to 0.8 mg/kg): < 50%
- MAO-A inhibition in the intestine ([1]; intestine, given by pumps): did not inhibit
- MAO-A inhibition in the intestine ([1]; intestine, given orally): 26-37%
- hepatic MAO-A inhibition, subcutaneous ALZET pumps compared with oral ([1]; liver): higher
- MAO-A activity, liver ([1]; liver, oral, 0.02 mg/kg/day (salt)): 2127 dpm
- MAO-A activity, liver ([1]; liver, oral, 0.05 mg/kg/day (salt)): 2199 dpm
- MAO-A activity, liver ([1]; liver, oral, 0.1 mg/kg/day (salt)): 1963 dpm
- MAO-A activity, liver ([1]; liver, oral, 0.2 mg/kg/day (salt)): 1582 dpm
- MAO-A activity, liver ([1]; liver, oral, 0.4 mg/kg/day (salt)): 1058 dpm
- MAO-A activity, liver ([1]; liver, oral, 0.8 mg/kg/day (salt)): 681 dpm
- MAO-A activity, liver ([1]; liver, sc ALZET pumps, 0.02 mg/kg/day (salt)): 2192 dpm
- MAO-A activity, liver ([1]; liver, sc ALZET pumps, 0.05 mg/kg/day (salt)): 2185 dpm
- MAO-A activity, liver ([1]; liver, sc ALZET pumps, 0.1 mg/kg/day (salt)): 1930 dpm
- MAO-A activity, liver ([1]; liver, sc ALZET pumps, 0.2 mg/kg/day (salt)): 646 dpm
- MAO-A activity, liver ([1]; liver, sc ALZET pumps, 0.4 mg/kg/day (salt)): 27 + dpm
- MAO-A activity, liver ([1]; liver, sc ALZET pumps, 0.8 mg/kg/day (salt)): 4 dpm
- inhibition at 0.02 mg/kg/day [1, 3]: 6%
- inhibition at 0.05 mg/kg/day [1, 3]: 15%
- inhibition at 0.1 mg/kg/day [1, 3]: 23%
- inhibition at 0.2 mg/kg/day [1, 3]: 37%
- inhibition at 0.4 mg/kg/day [1, 3]: 61%
- inhibition at 0.8 mg/kg/day [1, 3]: 78%
- inhibition at 0.02 mg/kg/day [1, 4]: 26%
- inhibition at 0.1 mg/kg/day [1, 4]: 37%
- inhibition at 0.2 mg/kg/day [1, 4]: 48%
- inhibition at 0.8 mg/kg/day [1, 4]: 79%
- inhibition at 0.02 mg/kg/day [1, 5]: 8%
- inhibition at 0.05 mg/kg/day [1, 5]: 5%
- inhibition at 0.1 mg/kg/day [1, 5]: 18%
- inhibition at 0.2 mg/kg/day [1, 5]: 31%
- inhibition at 0.8 mg/kg/day [1, 5]: 70%
- inhibition at 0.02 mg/kg/day [1, 6]: 8%
- inhibition at 0.05 mg/kg/day [1, 6]: 21%
- inhibition at 0.1 mg/kg/day [1, 6]: 31%
- inhibition at 0.2 mg/kg/day [1, 6]: 57%
- inhibition at 0.4 mg/kg/day [1, 6]: 76%
- inhibition at 0.8 mg/kg/day [1, 6]: 88%
- inhibition at 0.02 mg/kg/day [1, 7]: -8%
- inhibition at 0.05 mg/kg/day [1, 7]: 1%
- inhibition at 0.1 mg/kg/day [1, 7]: -3%
- inhibition at 0.2 mg/kg/day [1, 7]: 12%
- inhibition at 0.4 mg/kg/day [1, 7]: 34%
- inhibition at 0.8 mg/kg/day [1, 7]: 42%
- inhibition at 0.02 mg/kg/day [1, 8]: 1%
- inhibition at 0.05 mg/kg/day [1, 8]: 1%
- inhibition at 0.1 mg/kg/day [1, 8]: 13%
- inhibition at 0.2 mg/kg/day [1, 8]: 71%
- inhibition at 0.4 mg/kg/day [1, 8]: 99%
- inhibition at 0.8 mg/kg/day [1, 8]: 100%
SMILES: C#CCN[C@@H]1CCc2ccccc21 [rasagiline, R(+)-N-propargyl-l-aminoindan]
- absolute bioavailability [2]: about 36%
